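Five compound concentrations were applied to cells in 96-well plates for 48 hours; endpoints were derived by simple linear interpolation of the resulting dose-response curve. Here, GI50 denotes the concentration required for 50% inhibition of growth. TGI denotes the concentration required for complete inhibition of growth.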
Legend:
Assay in all cases: NCI anticancer screen, dose series, 48 h
RXF 393 renal = tested on: RXF 393 renal
DU-145 prostate = tested on: DU-145 prostate
MDA-MB-231 breast = tested on: MDA-MB-231 breast
OVCAR-5 ovarian = tested on: OVCAR-5 ovarian
SK-OV-3 ovarian = tested on: SK-OV-3 ovarian
SW-620 colon = tested on: SW-620 colon
HCC-2998 colon = tested on: HCC-2998 colon
HOP-62 NSCLC = tested on: HOP-62 NSCLC
SK-MEL-5 melanoma = tested on: SK-MEL-5 melanoma
HCT-116 colon = tested on: HCT-116 colon
ACHN renal = tested on: ACHN renal
HCT-15 colon = tested on: HCT-15 colon
786-0 renal = tested on: 786-0 renal
NCI-H23 lung = tested on: NCI-H23 lung
M14 melanoma = tested on: M14 melanoma
NCI/ADR-RES ovarian = tested on: NCI/ADR-RES ovarian
SK-MEL-2 melanoma = tested on: SK-MEL-2 melanoma
UO-31 renal = tested on: UO-31 renal
NCI-H522 lung = tested on: NCI-H522 lung
CCRF-CEM leukemia = tested on: CCRF-CEM leukemia
NCI-H226 lung = tested on: NCI-H226 lung
NCI-H460 lung = tested on: NCI-H460 lung
SF-268 CNS = tested on: SF-268 CNS
PC-3 prostate = tested on: PC-3 prostate
LOX IMVI melanoma = tested on: LOX IMVI melanoma
UACC-62 melanoma = tested on: UACC-62 melanoma
IGROV1 ovarian = tested on: IGROV1 ovarian
EKVX NSCLC = tested on: EKVX NSCLC
SNB-19 CNS = tested on: SNB-19 CNS
SF-539 CNS = tested on: SF-539 CNS
T-47D breast = tested on: T-47D breast
SK-MEL-28 melanoma = tested on: SK-MEL-28 melanoma
OVCAR-4 ovarian = tested on: OVCAR-4 ovarian
RPMI-8226 leukemia = tested on: RPMI-8226 leukemia
SNB-75 CNS = tested on: SNB-75 CNS
MDA-MB-435 = tested on: MDA-MB-435
MCF7 breast = tested on: MCF7 breast
OVCAR-3 ovarian = tested on: OVCAR-3 ovarian
MOLT-4 leukemia = tested on: MOLT-4 leukemia
UACC-257 melanoma = tested on: UACC-257 melanoma
U251 CNS = tested on: U251 CNS
TK-10 renal = tested on: TK-10 renal
SN12C renal = tested on: SN12C renal
OVCAR-8 ovarian = tested on: OVCAR-8 ovarian
CAKI-1 renal = tested on: CAKI-1 renal
SF-295 CNS = tested on: SF-295 CNS
HOP-92 NSCLC = tested on: HOP-92 NSCLC
SR leukemia = tested on: SR leukemia
HL-60(TB) leukemia = tested on: HL-60(TB) leukemia
K-562 leukemia = tested on: K-562 leukemia
HT29 colon = tested on: HT29 colon
A549 NSCLC = tested on: A549 NSCLC
KM12 colon = tested on: KM12 colon

CSc1ccc2c(c1)C(=O)c1c-2n(CCCN)c(=O)c2cc([N+](=O)[O-])ccc12
GI50 (RXF 393 renal): 1.95 µM | TGI (RXF 393 renal): > 100 µM | GI50 (DU-145 prostate): < 0.01 µM | TGI (DU-145 prostate): 0.16 µM | GI50 (MDA-MB-231 breast): 0.215 µM | TGI (MDA-MB-231 breast): 0.422 µM | GI50 (OVCAR-5 ovarian): 0.123 µM | TGI (OVCAR-5 ovarian): 0.872 µM | GI50 (SK-OV-3 ovarian): < 0.0117 µM | TGI (SK-OV-3 ovarian): 1.37 µM | GI50 (SW-620 colon): < 0.01 µM | TGI (SW-620 colon): 0.209 µM | GI50 (HCC-2998 colon): 0.104 µM | TGI (HCC-2998 colon): 0.581 µM | GI50 (HOP-62 NSCLC): < 0.01 µM | TGI (HOP-62 NSCLC): 0.147 µM | GI50 (SK-MEL-5 melanoma): 0.127 µM | TGI (SK-MEL-5 melanoma): 1.63 µM | GI50 (HCT-116 colon): < 0.01 µM | TGI (HCT-116 colon): 0.173 µM | GI50 (ACHN renal): < 0.01 µM | TGI (ACHN renal): 0.327 µM | GI50 (HCT-15 colon): 0.0962 µM | TGI (HCT-15 colon): 0.249 µM | GI50 (786-0 renal): 0.0127 µM | TGI (786-0 renal): 0.108 µM | GI50 (NCI-H23 lung): < 0.01 µM | TGI (NCI-H23 lung): 0.158 µM | GI50 (M14 melanoma): 0.0249 µM | TGI (M14 melanoma): 1.07 µM

CCC1C(C)C=NN1c1nc(N)nc(C(C#N)=Nc2ccc(N(C)C)cc2)n1 (stereo unspecified)
GI50 (RXF 393 renal): 10.3 µM | TGI (RXF 393 renal): 24 µM | GI50 (NCI/ADR-RES ovarian): 9.88 µM | TGI (NCI/ADR-RES ovarian): 22 µM | GI50 (SK-MEL-2 melanoma): 32.2 µM | TGI (SK-MEL-2 melanoma): > 50 µM | GI50 (DU-145 prostate): 9.32 µM | TGI (DU-145 prostate): 17.4 µM | GI50 (UO-31 renal): 15.1 µM | TGI (UO-31 renal): > 50 µM | GI50 (NCI-H522 lung): > 50 µM | TGI (NCI-H522 lung): > 50 µM | GI50 (CCRF-CEM leukemia): 6.11 µM | TGI (CCRF-CEM leukemia): 20.4 µM | GI50 (NCI-H226 lung): 10.8 µM | TGI (NCI-H226 lung): 28.8 µM | GI50 (MDA-MB-231 breast): 11.4 µM | TGI (MDA-MB-231 breast): 30.9 µM | GI50 (NCI-H460 lung): 11.1 µM | TGI (NCI-H460 lung): 24.5 µM | GI50 (SF-268 CNS): 10.6 µM | TGI (SF-268 CNS): 23.2 µM | GI50 (PC-3 prostate): 2.53 µM | TGI (PC-3 prostate): 10.1 µM | GI50 (LOX IMVI melanoma): 8.53 µM | TGI (LOX IMVI melanoma): 15.7 µM | GI50 (UACC-62 melanoma): 14.6 µM | TGI (UACC-62 melanoma): > 50 µM | GI50 (IGROV1 ovarian): 30.9 µM | TGI (IGROV1 ovarian): > 50 µM | GI50 (OVCAR-5 ovarian): 10.2 µM | TGI (OVCAR-5 ovarian): 26.6 µM | GI50 (EKVX NSCLC): 11.3 µM | TGI (EKVX NSCLC): 32.2 µM | GI50 (SNB-19 CNS): > 50 µM | TGI (SNB-19 CNS): > 50 µM | GI50 (SF-539 CNS): 1.03 µM | TGI (SF-539 CNS): 5.97 µM | GI50 (T-47D breast): 23.5 µM | TGI (T-47D breast): > 50 µM | GI50 (SK-MEL-28 melanoma): 8.61 µM | TGI (SK-MEL-28 melanoma): 18.4 µM | GI50 (OVCAR-4 ovarian): 16.3 µM | TGI (OVCAR-4 ovarian): > 50 µM | GI50 (SK-OV-3 ovarian): 9.32 µM | TGI (SK-OV-3 ovarian): 17.8 µM | GI50 (RPMI-8226 leukemia): 2.55 µM | TGI (RPMI-8226 leukemia): > 50 µM | GI50 (SNB-75 CNS): 8.95 µM | TGI (SNB-75 CNS): 22.6 µM | GI50 (MDA-MB-435): 16.7 µM | TGI (MDA-MB-435): > 50 µM | GI50 (MCF7 breast): 9.76 µM | TGI (MCF7 breast): 17.8 µM | GI50 (SW-620 colon): 12.1 µM | TGI (SW-620 colon): 26.8 µM | GI50 (HCC-2998 colon): 9.93 µM | TGI (HCC-2998 colon): 19.6 µM | GI50 (OVCAR-3 ovarian): 10.1 µM | TGI (OVCAR-3 ovarian): 21.8 µM | GI50 (HOP-62 NSCLC): 18.8 µM | TGI (HOP-62 NSCLC): > 50 µM | GI50 (SK-MEL-5 melanoma): 9.09 µM | TGI (SK-MEL-5 melanoma): 17.1 µM | GI50 (HCT-116 colon): 16.5 µM | TGI (HCT-116 colon): > 50 µM | GI50 (MOLT-4 leukemia): 21.6 µM | TGI (MOLT-4 leukemia): > 50 µM | GI50 (UACC-257 melanoma): > 50 µM | TGI (UACC-257 melanoma): > 50 µM | GI50 (U251 CNS): 8.93 µM | TGI (U251 CNS): 16.8 µM | GI50 (TK-10 renal): 10.6 µM | TGI (TK-10 renal): 18.9 µM | GI50 (ACHN renal): 9.17 µM | TGI (ACHN renal): 17.1 µM | GI50 (SN12C renal): 9.76 µM | TGI (SN12C renal): 18.9 µM | GI50 (OVCAR-8 ovarian): 10.6 µM | TGI (OVCAR-8 ovarian): 31 µM | GI50 (CAKI-1 renal): 9.06 µM | TGI (CAKI-1 renal): 20.8 µM | GI50 (SF-295 CNS): 8.96 µM | TGI (SF-295 CNS): 16.1 µM | GI50 (HCT-15 colon): 15.6 µM | TGI (HCT-15 colon): > 50 µM | GI50 (HOP-92 NSCLC): 12.1 µM | TGI (HOP-92 NSCLC): > 50 µM | GI50 (786-0 renal): 17.4 µM | TGI (786-0 renal): > 50 µM | GI50 (SR leukemia): 9.56 µM | TGI (SR leukemia): > 50 µM | GI50 (NCI-H23 lung): 13.8 µM | TGI (NCI-H23 lung): > 50 µM | GI50 (HL-60(TB) leukemia): 7.62 µM | TGI (HL-60(TB) leukemia): > 50 µM | GI50 (M14 melanoma): 9.11 µM | TGI (M14 melanoma): 16.5 µM | GI50 (K-562 leukemia): 2.73 µM | TGI (K-562 leukemia): > 50 µM | GI50 (HT29 colon): 16.5 µM | TGI (HT29 colon): > 50 µM | GI50 (A549 NSCLC): 33.9 µM | TGI (A549 NSCLC): > 50 µM | GI50 (KM12 colon): 9.85 µM | TGI (KM12 colon): 18.6 µM
